Test results: US20200392158A1, “INHIBITORS OF LEUCINE RICH REPEAT KINASE 2” (GLAXOSMITHKLINE INTELLECTUAL PROPERTY DEVELOPMENT LIMITED, priority 2017, published 2020)

The molecules below were run against T1, full length G2019 human LRRK2 (Homo sapiens, UniProt Q5S007, R50H) (assay: Full length G2019 human LRRK2 inhibition mass spectrometry assay). Settings: LRRKtide to phospho-LRRKtide conversion, RapidFire MS, 2 mM ATP.
T1 construct: made in house; host or cells: HEK293 6E cells transduced with BacMam virus (virus generated in Sf9 cells)
T1 sequence (Q5S007 with tags, fused parts or gaps R50H): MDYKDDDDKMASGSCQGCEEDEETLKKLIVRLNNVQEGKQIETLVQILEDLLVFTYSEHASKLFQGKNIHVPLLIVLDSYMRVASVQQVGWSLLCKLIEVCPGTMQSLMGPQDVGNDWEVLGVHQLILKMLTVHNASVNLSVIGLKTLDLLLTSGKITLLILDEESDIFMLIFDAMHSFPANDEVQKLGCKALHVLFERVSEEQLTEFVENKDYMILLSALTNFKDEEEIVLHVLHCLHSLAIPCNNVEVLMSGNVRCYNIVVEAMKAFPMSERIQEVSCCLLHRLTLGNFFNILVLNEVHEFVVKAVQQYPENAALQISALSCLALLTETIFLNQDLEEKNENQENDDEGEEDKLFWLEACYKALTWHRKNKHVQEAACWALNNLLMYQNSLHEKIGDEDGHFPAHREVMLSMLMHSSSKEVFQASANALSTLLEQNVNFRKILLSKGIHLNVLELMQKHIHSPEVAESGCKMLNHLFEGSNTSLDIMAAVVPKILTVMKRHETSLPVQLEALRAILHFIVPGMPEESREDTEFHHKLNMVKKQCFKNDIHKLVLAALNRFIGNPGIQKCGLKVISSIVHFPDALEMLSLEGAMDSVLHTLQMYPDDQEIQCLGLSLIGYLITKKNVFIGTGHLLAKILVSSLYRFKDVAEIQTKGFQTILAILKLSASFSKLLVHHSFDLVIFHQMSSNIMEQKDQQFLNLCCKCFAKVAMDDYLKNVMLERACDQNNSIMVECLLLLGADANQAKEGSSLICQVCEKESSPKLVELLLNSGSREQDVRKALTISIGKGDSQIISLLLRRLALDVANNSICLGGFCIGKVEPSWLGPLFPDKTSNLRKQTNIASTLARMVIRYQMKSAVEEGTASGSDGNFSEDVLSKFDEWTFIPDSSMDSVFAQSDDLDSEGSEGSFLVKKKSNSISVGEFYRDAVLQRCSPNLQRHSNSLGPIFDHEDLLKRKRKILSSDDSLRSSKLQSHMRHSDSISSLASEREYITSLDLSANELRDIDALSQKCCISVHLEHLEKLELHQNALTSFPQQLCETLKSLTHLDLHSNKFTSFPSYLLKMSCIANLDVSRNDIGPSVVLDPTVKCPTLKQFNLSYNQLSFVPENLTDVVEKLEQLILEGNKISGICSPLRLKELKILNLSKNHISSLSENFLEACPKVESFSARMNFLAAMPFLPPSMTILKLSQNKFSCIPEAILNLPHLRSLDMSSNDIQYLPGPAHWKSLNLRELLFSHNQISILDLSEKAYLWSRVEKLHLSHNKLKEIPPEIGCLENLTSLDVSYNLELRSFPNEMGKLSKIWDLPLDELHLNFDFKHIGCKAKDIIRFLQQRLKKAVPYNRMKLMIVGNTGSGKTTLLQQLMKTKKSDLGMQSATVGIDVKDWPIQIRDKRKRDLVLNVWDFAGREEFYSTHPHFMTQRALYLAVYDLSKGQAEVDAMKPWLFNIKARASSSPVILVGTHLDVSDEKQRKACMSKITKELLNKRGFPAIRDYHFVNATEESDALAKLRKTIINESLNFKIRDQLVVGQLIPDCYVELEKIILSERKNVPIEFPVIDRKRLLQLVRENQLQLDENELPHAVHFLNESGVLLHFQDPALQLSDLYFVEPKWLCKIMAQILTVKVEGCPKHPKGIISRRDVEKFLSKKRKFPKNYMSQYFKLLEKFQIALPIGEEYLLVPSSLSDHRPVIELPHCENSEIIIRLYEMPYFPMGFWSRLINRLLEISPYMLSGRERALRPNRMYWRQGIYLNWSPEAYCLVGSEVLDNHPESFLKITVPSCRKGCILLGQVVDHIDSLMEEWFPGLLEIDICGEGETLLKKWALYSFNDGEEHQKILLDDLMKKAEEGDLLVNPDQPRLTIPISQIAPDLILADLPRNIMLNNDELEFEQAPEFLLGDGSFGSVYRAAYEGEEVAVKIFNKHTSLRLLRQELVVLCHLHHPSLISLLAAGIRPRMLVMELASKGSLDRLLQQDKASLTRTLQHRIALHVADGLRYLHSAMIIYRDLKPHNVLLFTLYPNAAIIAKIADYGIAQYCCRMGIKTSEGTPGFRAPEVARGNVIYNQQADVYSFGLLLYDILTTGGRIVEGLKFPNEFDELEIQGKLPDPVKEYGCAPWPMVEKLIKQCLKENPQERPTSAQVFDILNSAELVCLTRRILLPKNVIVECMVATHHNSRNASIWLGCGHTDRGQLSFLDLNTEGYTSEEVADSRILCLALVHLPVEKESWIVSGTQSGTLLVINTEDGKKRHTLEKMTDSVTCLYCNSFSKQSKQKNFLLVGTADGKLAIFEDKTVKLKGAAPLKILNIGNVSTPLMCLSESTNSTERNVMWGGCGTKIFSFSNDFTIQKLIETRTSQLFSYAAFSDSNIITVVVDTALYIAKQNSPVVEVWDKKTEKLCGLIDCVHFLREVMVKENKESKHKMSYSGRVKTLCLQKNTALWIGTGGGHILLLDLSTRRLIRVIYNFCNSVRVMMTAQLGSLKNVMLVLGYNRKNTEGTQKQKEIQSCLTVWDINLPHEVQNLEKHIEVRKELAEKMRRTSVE
Type: biochemical
In short: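 Inhibition taken as reduced LRRKtide phosphorylation, quantified by RapidFire-coupled triple-quadrupole MS as product/(product+substrate) peak area. Reaction: 2 mM ATP, 25 μM peptide, ~25 nM full-length G2019 Flag-LRRK2, Hepes pH 7.2 buffer, room temperature for 1 h. 11-point 1-in-4 dilutions from 100 μM; logistic fit gives IC50, reported as pIC50.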

Compound	IC50
Cc1c2c(nn1C1CCOC1)OCCCNc1nc(ncc1C(F)(F)F)N2 (single isomer, unassigned) [E128, 4-methyl-5-(oxolan-3-yl)-14-(trifluoromethyl)-8-oxa-2,5,6,12,16,17-hexaazatricyclo[11.3.1.0^3,7]heptadeca-1(16),3,6,13(17),14-pentaene]	≤ 0.1 µM
COC1CCCC(n2nc3c(c2C)Nc2ncc(Cl)c(n2)NCCCO3)C1 (single isomer, unassigned) [E180, 14-Chloro-5-(3-methoxycyclohexyl)-4-methyl-8-oxa-2,5,6,12,16,17-hexaazatricyclo[11.3.1.0^3,7]heptadeca-1(16),3,6,13(17),14-pentaene]	≤ 0.1 µM
Cc1c2c(nn1C1COCCC1(F)F)OCCCNc1nc(ncc1Cl)N2 (single isomer, unassigned) [E303, 14-Chloro-5-(4,4-difluorooxan-3-yl)-4-methyl-8-oxa-2,5,6,12,16,17-hexaazatricyclo[11.3.1.0^3,7]heptadeca-1(16),3,6,13(17),14-pentaene]	≤ 10 µM
Cc1c2c(nn1C(C)(C)C(N)=O)OCCCNc1nc(ncc1Cl)N2 [E190, 2-{14-Chloro-4-methyl-8-oxa-2,5,6,12,16,17-hexaazatricyclo [11.3.1.0^3,7]heptadeca-1(16),3,6,13(17),14-pentaen-5-yl}-2-methylpropanamide]	≤ 10 µM
Cc1c2c(nn1C1CCOCC1F)OCCCNc1nc(ncc1Cl)N2 (single isomer, unassigned) [E236, 14-Chloro-5-(3-fluorooxan-4-yl)-4-methyl-8-oxa-2,5,6,12,16,17-hexaazatricyclo[11.3.1.0^3,7]heptadeca-1(16),3,6,13 (17),14-pentaene]	≤ 0.1 µM

Other lines, results leading:

IC50	Compound
≤ 0.1 µM	Cc1c2c(nn1C1CC(C)OC(C)C1)OCCC(C)Nc1nc(ncc1Cl)N2 (single isomer, unassigned) [E195, 14-Chloro-5-(2,6-dimethyloxan-4-yl)-4,11-dimethyl-8-oxa-2,5,6,12,16,17-hexaazatricyclo[11.3.1.0^3,7] heptadeca-1(16),3,6,13(17),14-pentaene]
≤ 10 µM	Cc1c2c(nn1C1CCOCC1)OCC(C)C(C)Nc1nc(ncc1Cl)N2 (single isomer, unassigned) [E33, 14-chloro-4,10,11-trimethyl-5-(oxan-4-yl)-8-oxa-2,5,6,12,16,17-hexaazatricyclo [11.3.1.0^3,7]heptadeca-1(16),3,6,13(17),14-pentaene]
≤ 10 µM	COc1cnc2nc1N[C@H](C)CCOc1nn(C3CCOCC3)c(C)c1N2 [E294, (11R)-14-Methoxy-4,11-dimethyl-5-(oxan-4-yl)-8-oxa-2,5,6,12,16, 17-hexaazatricyclo[11.3.1.0^3,7]heptadeca-1(16),3,6,13(17),14-pentaene]

These molecules were tested against T2, LRRK2 kinase in SH-SY5Y cells over-expressing recombinant full length LRRK2 (Homo sapiens, UniProt Q5S007) (assay: Recombinant cellular LRRK2 AlphaScreen assay (LRRK2 Ser935 phosphorylation)). Settings: 60 min.
T2 construct: A BacMam virus expressing full length recombinant LRRK2 was purchased from Invitrogen; host or cells: SH-SY5Y human neuroblastoma cells transduced with BacMam LRRK2 virus
T2 sequence (Q5S007 whole entry): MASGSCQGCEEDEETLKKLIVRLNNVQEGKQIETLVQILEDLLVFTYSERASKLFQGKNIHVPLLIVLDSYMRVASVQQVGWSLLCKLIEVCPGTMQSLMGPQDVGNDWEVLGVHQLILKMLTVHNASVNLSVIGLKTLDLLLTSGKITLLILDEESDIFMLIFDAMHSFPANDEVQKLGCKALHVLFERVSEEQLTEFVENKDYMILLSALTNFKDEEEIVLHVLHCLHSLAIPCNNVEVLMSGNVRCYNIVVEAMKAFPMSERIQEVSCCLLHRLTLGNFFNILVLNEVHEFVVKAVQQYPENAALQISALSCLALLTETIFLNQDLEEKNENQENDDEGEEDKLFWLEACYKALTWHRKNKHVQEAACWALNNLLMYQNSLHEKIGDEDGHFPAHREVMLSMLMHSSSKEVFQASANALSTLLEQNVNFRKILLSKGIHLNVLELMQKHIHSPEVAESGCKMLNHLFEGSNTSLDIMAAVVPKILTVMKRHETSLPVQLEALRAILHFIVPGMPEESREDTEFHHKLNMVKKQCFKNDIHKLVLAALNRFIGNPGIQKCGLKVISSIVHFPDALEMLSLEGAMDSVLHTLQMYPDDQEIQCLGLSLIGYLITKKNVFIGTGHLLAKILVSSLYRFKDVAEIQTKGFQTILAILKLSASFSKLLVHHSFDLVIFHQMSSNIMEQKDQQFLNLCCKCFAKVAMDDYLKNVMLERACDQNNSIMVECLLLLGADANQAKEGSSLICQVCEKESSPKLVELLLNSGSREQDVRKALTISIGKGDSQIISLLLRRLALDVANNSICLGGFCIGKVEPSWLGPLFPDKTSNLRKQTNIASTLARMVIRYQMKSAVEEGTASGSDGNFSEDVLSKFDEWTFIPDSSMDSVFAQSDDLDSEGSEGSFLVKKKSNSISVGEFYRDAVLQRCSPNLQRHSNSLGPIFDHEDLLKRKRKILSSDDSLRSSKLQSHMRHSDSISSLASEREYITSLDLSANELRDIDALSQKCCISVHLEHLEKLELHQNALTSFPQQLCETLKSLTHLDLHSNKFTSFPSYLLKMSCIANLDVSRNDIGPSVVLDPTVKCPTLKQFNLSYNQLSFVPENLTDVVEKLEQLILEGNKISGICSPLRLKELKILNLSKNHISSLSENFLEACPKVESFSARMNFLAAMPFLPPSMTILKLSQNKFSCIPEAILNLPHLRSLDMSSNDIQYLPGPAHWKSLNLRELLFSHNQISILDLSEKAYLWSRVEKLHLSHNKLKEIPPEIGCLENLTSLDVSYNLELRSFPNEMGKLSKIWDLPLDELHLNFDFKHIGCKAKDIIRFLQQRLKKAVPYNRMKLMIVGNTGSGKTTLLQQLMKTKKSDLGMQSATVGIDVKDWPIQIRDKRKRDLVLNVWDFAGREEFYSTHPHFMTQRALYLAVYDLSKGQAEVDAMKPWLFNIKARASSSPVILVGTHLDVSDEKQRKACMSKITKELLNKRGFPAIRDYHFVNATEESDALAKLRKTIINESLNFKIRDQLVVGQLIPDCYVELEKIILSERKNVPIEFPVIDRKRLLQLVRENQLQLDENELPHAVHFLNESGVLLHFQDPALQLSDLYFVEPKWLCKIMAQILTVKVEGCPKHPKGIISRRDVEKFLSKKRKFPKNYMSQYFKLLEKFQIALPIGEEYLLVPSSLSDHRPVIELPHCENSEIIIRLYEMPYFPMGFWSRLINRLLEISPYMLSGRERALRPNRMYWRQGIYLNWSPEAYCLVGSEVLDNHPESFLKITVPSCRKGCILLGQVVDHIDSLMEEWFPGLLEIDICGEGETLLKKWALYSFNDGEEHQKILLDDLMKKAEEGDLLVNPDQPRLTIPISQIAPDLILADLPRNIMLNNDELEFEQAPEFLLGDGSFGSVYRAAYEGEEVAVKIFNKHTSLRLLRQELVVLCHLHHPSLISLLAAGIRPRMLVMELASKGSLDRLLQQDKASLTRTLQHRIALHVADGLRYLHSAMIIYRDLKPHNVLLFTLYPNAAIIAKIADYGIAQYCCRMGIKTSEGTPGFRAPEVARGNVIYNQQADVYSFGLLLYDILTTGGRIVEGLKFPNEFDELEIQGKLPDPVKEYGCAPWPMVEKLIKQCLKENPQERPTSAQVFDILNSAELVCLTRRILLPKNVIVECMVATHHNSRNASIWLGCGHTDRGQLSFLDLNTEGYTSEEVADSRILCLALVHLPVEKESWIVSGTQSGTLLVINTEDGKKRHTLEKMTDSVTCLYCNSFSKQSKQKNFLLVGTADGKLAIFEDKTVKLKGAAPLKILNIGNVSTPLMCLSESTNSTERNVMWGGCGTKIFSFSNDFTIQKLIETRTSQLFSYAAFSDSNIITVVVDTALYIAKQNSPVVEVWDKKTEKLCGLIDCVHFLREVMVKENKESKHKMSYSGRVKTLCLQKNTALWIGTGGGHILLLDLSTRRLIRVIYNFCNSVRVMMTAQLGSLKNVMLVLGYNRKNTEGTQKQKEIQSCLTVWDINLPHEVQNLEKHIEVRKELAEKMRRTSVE
Type: cell-based
Text: b. Recombinant Cellular LRRK2 AlphaScreen Assay
To determine the activity of compounds against LRRK2 kinase in cells, the observed LRRK2 kinase-dependent modulation of LRRK2 Ser 935 phosphorylation (Dzamko et al., 2010, Biochem. J. 430: 405-413) was utilized to develop a quantitative 384 well plate-based immunoassay of LRRK2 Ser935 phosphorylation in the human neuroblastoma cell line SH-SY5Y, engineered to over-express recombinant full length LRRK2 protein.
A BacMam virus expressing full length recombinant LRRK2 was purchased from Invitrogen and amplified by inoculation of SF-9 cells at MOI 0.3 for 4-5 days in Sf-900 III SFM medium supplemented with 3% fetal bovine serum. Infected cell cultures were then centrifuged at 2000 g for 20 minutes, viral supernatant titer determined by anti-gp64 plaque assay and stored at 4° C.
Affinity-purified anti-phospho LRRK2 Ser935 sheep polyclonal antibody (Dzamko et al., 2010, Biochem. J. 430: 405-413) was biotinylated by standard methods (PerkinElmer). Anti-LRRK2 rabbit polyclonal antibody was purchased from Novus Biologicals. AlphaScreen Protein A IgG Kit (including acceptor and donor beads) was purchased from Perkin Elmer.
SH-SY5Y cells were grown in DMEM/F12 medium with 10% dialysed fetal bovine serum and harvested by treatment with 0.5% trypsin-EDTA for 5 minutes at 37° C. followed by centrifugation at 1000 rpm for 4 minutes. The cell pellet was resuspended in Opti-MEM reduced serum media (Invitrogen) at 200,000 cells/ml and mixed with the BacMam LRRK2 virus at M01=50. 50 μl cell solutions were then dispensed to each well of a 384-well plate and incubated at 37° C., 5% CO2 for 24 hours.
Compounds were prepared at 10× final assay concentration as 11 point 1 in 4 serial I dilutions in Opti-MEM reduced serum medium (Invitrogen 31985070) containing 1% DMSO. On the day of assay, 5.5 μl of the compound solutions were transferred from the compound plate to the cell assay plate to achieve a top final assay concentration of 10 uM. DMSO (0.1% final assay concentration) was added to column 6 and 2-(benzyloxy)-5-methyl-4-(1-methyl-1H-pyrazol-4-yl)-N-(pyridin-3-yl)benzamide (2 μM final assay concentration) was added to column 18 to serve as 0% and 100% inhibition controls, respectively.
Cells were incubated at 37° C., 5% CO2 for 60 minutes. The medium was then removed and cells lysed by addition of 20 μl of cell lysis buffer (Cell Signaling Technology) and incubation at 4° C. for 20 minutes. 10 μl of antibody/acceptor bead mix [(1/1000 biotinylated-pS935 LRRK2 antibody, 1/1000 total-LRRK2 antibody, 1/100 Acceptor beads in AlphaScreen detection buffer (25 mM Hepes (pH 7.4), 0.5% Triton X-100, 1 mg/ml Dextran 500 and 0.1% BSA)] was then added to each well and plates incubated for 2 hours at ambient temperature in the dark. 10 μl of donor beads solution (1/33.3 donor beads in AlphaScreen detection buffer) was then added to each well. Following incubation for a further 2 hours at ambient temperature in the dark, plates were read on an EnVision™ plate reader at emission 520-620 nm with excitation 680 nm. Dose response curve data was based on a sigmoidal dose-response model.

Compound	IC50
COC1CCCC(n2nc3c(c2C)Nc2ncc(Cl)c(n2)NCCCO3)C1 (single isomer, unassigned) [E178, 14-Chloro-5-(3-methoxycyclohexyl)-4-methyl-8-oxa-2,5,6,12,16,17-hexaazatricyclo[11.3.1.0^3,7]heptadeca-1(16),3,6,13(17),14-pentaene]	≤ 0.1 µM
Cc1c2c(nn1C1CCOCC1F)OCC(F)CNc1nc(ncc1Cl)N2 (single isomer, unassigned) [E334, 14-Chloro-10-fluoro-5-(3-fluorooxan-4-yl)-4-methyl-8-oxa-2,5,6,12,16,17-hexaazatricyclo[11.3.1.0^3,7] heptadeca-1(16),3,6,13(17),14-pentaene]	≤ 0.1 µM
COC1CNc2nc(ncc2Cl)Nc2c(nn(C3CCCOC3)c2C)OC1 (single isomer, unassigned) [E229, 14-Chloro-10-methoxy-4-methyl-5-(oxan-3-yl)-8-oxa-2,5,6,12,16,17-hexaazatricyclo[11.3.1.0^3,7]heptadeca-1(17),3,6,13,15-pentaene]	≤ 0.1 µM
Cc1c2c(nn1C(C)(C)C#N)OCCC(C)Nc1nc(ncc1Cl)N2 (single isomer, unassigned) [E44, 2-{14-chloro-4,11-dimethyl-8-oxa-2,5,6,12,16,17-hexaazatricyclo [11.3.1.0^3,7]heptadeca-1(16),3,6,13(17),14-pentaen-5-yl}-2-methylpropanenitrile]	≤ 0.1 µM
Cc1c2c(nn1C1(C#N)CCOCC1)OCCCNc1nc(ncc1Cl)N2 [E450, 4-{14-chloro-4-methyl-8-oxa-2,5,6,12,16,17-hexaazatricyclo[11.3.1.0^3,7]heptadeca-1(17),3,6,13,15-pentaen-5-yl}oxane-4-carbonitrile]	≤ 0.1 µM

Now from value to molecule:

IC50	Compound
≤ 0.1 µM	Cc1c2c(nn1C1CCOCC1)OCC(F)CNc1nc(ncc1Cl)N2 (stereo not shown) [E16, 14-Chloro-10-fluoro-4-methyl-5-(oxan-4-yl)-8-oxa-2,5,6,12,16,17-hexaazatricyclo [11.3.1.0^3,7]heptadeca-1(16),3,6,13(17),14-pentaene]
≤ 0.1 µM	Cc1c2c(nn1C1CCOCC1C(F)(F)F)OCC[C@@H](C)Nc1nc(ncc1Cl)N2 (single isomer, unassigned) [E448]
≤ 0.1 µM	Cc1c2c(nn1C1CCOCC1)OCCCNc1nc(ncc1C#N)N2 [E69, 4-Methyl-5-(oxan-4-yl)-8-oxa-2,5,6,12,16,17-hexaazatricyclo[11.3.1.0^3,7]heptadeca-1(16),3,6,13(17),14-pentaene-14-carbonitrile]
≤ 0.1 µM	Cc1c2c(nn1C1CN(C3COC3)CCO1)OCC[C@@H](C)Nc1nc(ncc1Cl)N2 (stereo partly drawn) [E402, (11R)-14-Chloro-4,11-dimethyl-5-[4-(oxetan-3-yl)morpholin-2-yl]-8-oxa-2,5,6,12,16,17-hexaazatricyclo[11.3.1.0^3,7]heptadeca-1(16),3,6,13(17),14-pentaene]
≤ 0.1 µM	Cc1c2c(nn1C1CCC(O)CC1)OCCC(C)Nc1nc(ncc1Cl)N2 (single isomer, unassigned) [E94, 4-{14-chloro-4,11-dimethyl-8-oxa-2,5,6,12,16,17-hexaazatricyclo [11.3.1.0^3,7]heptadeca-1(16),3,6,13(17),14-pentaen-5-yl}cyclohexan-1-ol]
≤ 0.1 µM	Cc1c2c(nn1C1CCC(C(F)(F)F)CC1)OCCC(C)Nc1nc(ncc1Cl)N2 (single isomer, unassigned) [E281, 4-Chloro-4,11-dimethyl-5-[4-(trifluoromethyl)cyclohexyl]-8-oxa-2,5,6,12,16,17-hexaazatricyclo[11.3.1.0^3,7] heptadeca-1(16),3,6,13(17),14-pentaene]
≤ 0.1 µM	Cc1c2c(nn1C1CCCOC1)OCCC(C)Nc1cc(ncc1Cl)N2 (single isomer, unassigned) [E346, 14-Chloro-4,11-dimethyl-5-(oxan-3-yl)-8-oxa-2,5,6,12,16-pentaazatricyclo[11.3.1.0^3,7]heptadeca-1(16),3,6,13 (17),14-pentaene]
≤ 0.1 µM	COC1CNc2nc(ncc2Cl)Nc2c(nn(C3CCC(C)CC3)c2C)OC1 (single isomer, unassigned) [E255, 14-Chloro-10-methoxy-4-methyl-5-(4-methylcyclohexyl)-8-oxa-2,5,6,12,16,17-hexaazatricyclo [11.3.1.0^3,7] heptadeca-1(16),3,6,13(17),14-pentaene]
≤ 0.1 µM	COC1CNc2nc(ncc2Cl)Nc2c(nn(C3CCOCC3)c2Cl)OC1 (stereo not shown) [E339, 4,14-Dichloro-10-methoxy-5-(oxan-4-yl)-8-oxa-2,5,6,12,16,17-hexaazatricyclo[11.3.1.0^3,7]heptadeca-1(16),3,6,13(17),14-pentaene]
